IC50 data for 20 compounds are collected here from patent publication US12371428B2 (Exelixis, Inc., priority 2019, dated 2025).

For assay [1], the target named is Human MER (residues 528-999) (Homo sapiens (Human), UniProt Q12866). Description: Human Mer kinase assay, HTRF KinEase (Example C-2). The class given is biochemical. As to conditions: protocol of Example C-2 (other compounds). The method in brief:
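HTRF KinEase TK assay with MER 528-999 (1 ng/well) in enzymatic buffer plus 5 mM MgCl2 and 1 mM DTT, biotinylated peptide substrate and ATP at Km (40 μM), 3% DMSO final, 60 min at room temperature. Stopped with EDTA detection mix (SA-XL665, TK antibody-Eu3+), read at 665/620 nm after 60 min; IC50 from 10-point 4-parameter fit, normalized to DMSO and 1 μM reference.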

For assay [2], the target named is Human KDR (residues 790-1356) (Homo sapiens (Human), UniProt P35968). As to the kind of experiment: Human KDR kinase assay, HTRF KinEase (Example B-2). As to conditions: protocol of Example B-2 (other compounds). The class given is biochemical. The method in brief: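 Ten compound concentrations (3% DMSO final) were pre-plated, then KDR (790-1356) with biotinylated peptide in Mg/Mn/DTT buffer was added; ATP at Km (4.0 μM) started a 40 min room-temperature reaction. Detection used Eu-TK antibody and SA-XL665 in EDTA buffer; activity normalized to DMSO and reference inhibitor, IC50 by logistic fit.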
Human KDR (residues 790-1356), sequence (P35968 790-1356): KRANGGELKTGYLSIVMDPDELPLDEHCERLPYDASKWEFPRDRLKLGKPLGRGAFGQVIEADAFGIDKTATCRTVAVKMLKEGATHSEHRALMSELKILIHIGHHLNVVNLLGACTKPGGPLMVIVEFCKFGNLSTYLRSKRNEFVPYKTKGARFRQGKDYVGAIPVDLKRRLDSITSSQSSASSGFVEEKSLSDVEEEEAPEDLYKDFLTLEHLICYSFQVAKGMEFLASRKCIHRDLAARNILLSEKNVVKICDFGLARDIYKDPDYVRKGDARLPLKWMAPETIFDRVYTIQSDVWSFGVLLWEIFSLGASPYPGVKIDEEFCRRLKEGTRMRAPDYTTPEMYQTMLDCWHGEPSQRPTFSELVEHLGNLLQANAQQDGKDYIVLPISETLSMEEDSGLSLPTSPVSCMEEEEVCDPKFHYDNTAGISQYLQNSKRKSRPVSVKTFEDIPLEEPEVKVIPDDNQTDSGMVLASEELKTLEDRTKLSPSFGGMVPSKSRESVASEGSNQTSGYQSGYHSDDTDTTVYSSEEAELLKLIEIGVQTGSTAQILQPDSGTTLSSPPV

The target in assay [3] is Mer (phospho-Mer, MERTK-transfected 293A cells) (Homo sapiens (Human), UniProt Q12866). Description: Mer autophosphorylation ELISA in transient transfected 293A cells (Example H). Type of assay: cell-based. As to conditions: cellular activity; Mer autophosphorylation ELISA in transient transfected 293A cells. Put shortly:
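MERTK-transfected 293A; 8-pt dose, 1 h, serum-free, 0.3% DMSO. Cold lysis with orthovanadate and protease/phosphatase inhibitors. Phospho-Mer by DuoSet IC ELISA vs phospho-Mer standard. IC50: 4-PL fit; DMSO = 100%, reference inhibitor = 0%.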

Counter-ions that a name gives are not always drawn.

Mer (phospho-Mer, MERTK-transfected 293A cells), sequence (Q12866 21-999): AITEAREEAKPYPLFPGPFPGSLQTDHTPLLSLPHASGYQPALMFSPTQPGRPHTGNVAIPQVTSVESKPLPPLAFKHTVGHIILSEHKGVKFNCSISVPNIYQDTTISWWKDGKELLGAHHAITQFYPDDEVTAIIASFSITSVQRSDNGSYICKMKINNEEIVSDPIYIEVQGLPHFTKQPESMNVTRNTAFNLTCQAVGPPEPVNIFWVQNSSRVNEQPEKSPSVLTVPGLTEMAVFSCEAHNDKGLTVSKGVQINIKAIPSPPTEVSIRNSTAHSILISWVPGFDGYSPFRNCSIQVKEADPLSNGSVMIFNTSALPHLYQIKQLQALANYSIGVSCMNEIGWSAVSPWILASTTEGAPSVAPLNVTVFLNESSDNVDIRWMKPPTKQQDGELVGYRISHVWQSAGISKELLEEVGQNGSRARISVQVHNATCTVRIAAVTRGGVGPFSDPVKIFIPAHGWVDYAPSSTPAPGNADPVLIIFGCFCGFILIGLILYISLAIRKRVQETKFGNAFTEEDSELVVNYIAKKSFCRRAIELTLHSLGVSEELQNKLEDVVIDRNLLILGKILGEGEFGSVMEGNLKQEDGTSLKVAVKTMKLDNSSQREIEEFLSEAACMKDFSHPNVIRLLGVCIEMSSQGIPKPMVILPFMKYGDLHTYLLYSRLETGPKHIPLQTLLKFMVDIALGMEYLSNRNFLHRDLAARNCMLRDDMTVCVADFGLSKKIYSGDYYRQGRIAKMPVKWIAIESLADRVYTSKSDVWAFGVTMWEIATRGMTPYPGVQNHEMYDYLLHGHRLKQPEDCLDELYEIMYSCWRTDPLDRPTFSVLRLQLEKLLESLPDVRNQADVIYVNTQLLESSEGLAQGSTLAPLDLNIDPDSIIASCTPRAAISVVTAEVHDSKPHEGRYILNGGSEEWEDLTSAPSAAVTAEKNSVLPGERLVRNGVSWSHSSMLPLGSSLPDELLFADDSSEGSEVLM
Human MER (residues 528-999), sequence (Q12866 528-999): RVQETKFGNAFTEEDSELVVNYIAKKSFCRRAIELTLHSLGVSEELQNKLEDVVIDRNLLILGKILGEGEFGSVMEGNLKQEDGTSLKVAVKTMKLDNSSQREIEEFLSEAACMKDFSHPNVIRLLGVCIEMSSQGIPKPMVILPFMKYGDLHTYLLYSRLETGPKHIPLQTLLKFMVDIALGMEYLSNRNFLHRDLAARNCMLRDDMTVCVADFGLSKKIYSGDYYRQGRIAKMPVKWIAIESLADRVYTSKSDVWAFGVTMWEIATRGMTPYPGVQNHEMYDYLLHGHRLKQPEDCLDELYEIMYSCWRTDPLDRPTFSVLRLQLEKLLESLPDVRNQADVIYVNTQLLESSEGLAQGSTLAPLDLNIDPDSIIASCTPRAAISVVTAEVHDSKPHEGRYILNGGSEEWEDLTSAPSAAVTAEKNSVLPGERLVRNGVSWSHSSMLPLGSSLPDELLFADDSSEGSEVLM

`COc1cnc2c(Oc3ccc(NC(=O)c4nnc(C)c(-c5ccc(F)cc5C)c4O)cc3F)ccnc2c1` (single isomer, unassigned) [Compound 249B, N-[3-Fluoro-4-[(7-methoxy-1,5-naphthyridin-4-yl)oxy]phenyl]-5-(4-fluoro-2-methylphenyl)-4-hydroxy-6-methylpyridazine-3-carboxamide]: the half-inhibitory concentration (IC50) in assay [1] was under 100 nM; in assay [2], over 300 nM; in assay [3] it was under 100 nM.
In the case of `COc1cnc2c(Oc3ccc(NC(=O)c4nnc(C)c(-c5ccc(F)cc5C)c4O)cc3F)ccnc2c1` (single isomer, unassigned) [Compound 249C, N-[3-Fluoro-4-[(7-methoxy-1,5-naphthyridin-4-yl)oxy]phenyl]-5-(4-fluoro-2-methylphenyl)-4-hydroxy-6-methylpyridazine-3-carboxamide], the 50% inhibitory concentration (IC50) in assay [1] is under 100 nM; in assay [2], over 300 nM; in assay [3] it was under 100 nM.
Regarding `COc1cc2nccc(Oc3ccc(NC(=O)c4cn(C(C)C)c(C)c(-c5cccc(F)c5)c4=O)cc3F)c2nc1OC` [Compound 30, N-[4-[(6,7-Dimethoxy-1,5-naphthyridin-4-yl)oxy]-3-fluorophenyl]-5-(3-fluorophenyl)-6-methyl-4-oxo-1-propan-2-ylpyridine-3-carboxamide hydrochloride], the IC50 in assay [1], in assay [2] and in assay [3] was under 100 nM each time.
With `COc1ccc(-c2c(C)n(C(C)C)cc(C(=O)Nc3ccc(Oc4ccnc5cc(OC)c(OC)nc45)c(F)c3)c2=O)cc1` [Compound 31, N-[4-[(6,7-dimethoxy-1,5-naphthyridin-4-yl)oxy]-3-fluorophenyl]-5-(4-methoxyphenyl)-6-methyl-4-oxo-1-propan-2-ylpyridine-3-carboxamide hydrochloride], the IC50 in assay [1], in assay [2] and in assay [3] was under 100 nM in each case.
On to `COc1cc2nccc(Oc3ccc(NC(=O)c4cn(C(C)C)c(C)c(-c5ccc(F)cc5C)c4=O)cc3F)c2nc1OC` [Compound 32, N-[4-[(6,7-Dimethoxy-1,5-naphthyridin-4-yl)oxy]-3-fluorophenyl]-5-(4-fluoro-2-methylphenyl)-6-methyl-4-oxo-1-propan-2-ylpyridine-3-carboxamide hydrochloride], for which the IC50 in assay [1] was under 100 nM; in assay [2] it was 100 to 300 nM; in assay [3], under 100 nM.
For the compound `COc1cc2nccc(Oc3ccc(NC(=O)c4cn(C)cc(-c5ccccc5)c4=O)cc3F)c2nc1OC` [Compound 33, N-[4-[(6,7-Dimethoxy-1,5-naphthyridin-4-yl)oxy]-3-fluorophenyl]-1-methyl-4-oxo-5-phenylpyridine-3-carboxamide hydrochloride], the IC50 in assay [1], in assay [2] and in assay [3] was under 100 nM throughout.
As to `COc1cc2nccc(Oc3ccc(NC(=O)c4cn(C)cc(-c5cccc(F)c5)c4=O)cc3F)c2nc1OC` [Compound 35, N-[4-[(6,7-Dimethoxy-1,5-naphthyridin-4-yl)oxy]-3-fluorophenyl]-5-(3-fluorophenyl)-1-methyl-4-oxopyridine-3-carboxamide hydrochloride], the IC50 in assay [1], in assay [2] and in assay [3] was under 100 nM throughout.
Take `COc1cc2nccc(Oc3ccc(NC(=O)c4cn(C)c(C)c(-c5ccccc5)c4=O)cc3F)c2nc1OC` [Compound 36, N-[4-[(6,7-Dimethoxy-1,5-naphthyridin-4-yl)oxy]-3-fluorophenyl]-1,6-dimethyl-4-oxo-5-phenylpyridine-3-carboxamide hydrochloride]: the concentration for half-maximal inhibition (IC50) in assay [1], in assay [2] and in assay [3] was under 100 nM in each case.
On to `COc1cc2nccc(Oc3ccc(NC(=O)c4cn(C)c(C)c(-c5cccc(F)c5)c4=O)cc3F)c2nc1OC` [Compound 37, N-[4-[(6,7-Dimethoxy-1,5-naphthyridin-4-yl)oxy]-3-fluorophenyl]-5-(3-fluorophenyl)-1,6-dimethyl-4-oxopyridine-3-carboxamide hydrochloride], for which the concentration for half-maximal inhibition (IC50) in assay [1] was under 100 nM; in assay [2], 100 to 300 nM; in assay [3], under 100 nM.
Regarding `COc1cnc2c(Oc3ccc(NC(=O)c4cnc(C)c(-c5ccc(F)cc5C)c4O)cc3)ccnc2c1` [Compound 176, 5-(4-Fluoro-2-methylphenyl)-4-hydroxy-N-[4-[(7-methoxy-1,5-naphthyridin-4-yl)oxy]phenyl]-6-methylpyridine-3-carboxamide], the IC50 in assay [1] was under 100 nM; in assay [2] it was over 300 nM; in assay [3] it was under 100 nM.
For the compound `COc1cc2nccc(Oc3ccc(NC(=O)c4c(C)nc(C)c(-c5ccc(F)cc5C)c4O)cc3F)c2nc1OC` [Compound 177, N-[4-[(6,7-Dimethoxy-1,5-naphthyridin-4-yl)oxy]-3-fluorophenyl]-5-(4-fluoro-2-methylphenyl)-4-hydroxy-2,6-dimethylpyridine-3-carboxamide], the IC50 in assay [1], in assay [2] and in assay [3] was under 100 nM throughout.
Turning to `COc1cnc2c(Oc3ccc(NC(=O)c4c(C)nc(C)c(-c5ccc(F)cc5C)c4O)cc3F)ccnc2c1` [Compound 178, N-[3-Fluoro-4-[(7-methoxy-1,5-naphthyridin-4-yl)oxy]phenyl]-5-(4-fluoro-2-methylphenyl)-4-hydroxy-2,6-dimethylpyridine-3-carboxamide], the IC50 in assay [1], in assay [2] and in assay [3] was under 100 nM throughout.
`CCc1nc(C)c(-c2ccc(F)cc2)c(O)c1C(=O)Nc1ccc(Oc2ccnc3cc(OC)c(OC)nc23)c(F)c1` [Compound 179, N-[4-[(6,7-Dimethoxy-1,5-naphthyridin-4-yl)oxy]-3-fluorophenyl]-2-ethyl-5-(4-fluorophenyl)-4-hydroxy-6-methylpyridine-3-carboxamide]: the half-maximal inhibitory concentration (IC50) in assay [1], in assay [2] and in assay [3] was under 100 nM throughout.
For the compound `CCc1nc(C)c(-c2ccc(F)cc2)c(O)c1C(=O)Nc1ccc(Oc2ccnc3cc(OC)cnc23)c(F)c1` [Compound 180, 2-Ethyl-N-[3-fluoro-4-[(7-methoxy-1,5-naphthyridin-4-yl)oxy]phenyl]-5-(4-fluorophenyl)-4-hydroxy-6-methylpyridine-3-carboxamide], the half-inhibitory concentration (IC50) in assay [1], in assay [2] and in assay [3] was under 100 nM each time.
As to `COc1cnc2c(Oc3ccc(NC(=O)c4cn(C)c(C)c(-c5ccc(F)cc5C)c4=O)cc3F)ccnc2c1` [Compound 181, N-[3-Fluoro-4-[(7-methoxy-1,5-naphthyridin-4-yl)oxy]phenyl]-5-(4-fluoro-2-methylphenyl)-1,6-dimethyl-4-oxopyridine-3-carboxamide], the results for the IC50 in assay [1], in assay [2] and in assay [3] were under 100 nM, over 300 nM and under 100 nM, respectively.
Take `CCc1nc(C)c(-c2ccc(F)cc2)c(O)c1C(=O)Nc1ccc(Oc2ccnc3ccc(OC)nc23)c(F)c1` [Compound 182, 2-Ethyl-N-[3-fluoro-4-[(6-methoxy-1,5-naphthyridin-4-yl)oxy]phenyl]-5-(4-fluorophenyl)-4-hydroxy-6-methylpyridine-3-carboxamide]: the half-inhibitory concentration (IC50) was under 100 nM in assay [1], 100 to 300 nM in assay [2] and under 100 nM in assay [3].
Regarding `COc1ccc2nccc(Oc3ccc(NC(=O)c4cn(C)c(C)c(-c5ccc(F)cc5C)c4=O)cc3F)c2n1` [Compound 183, N-[3-Fluoro-4-[(6-methoxy-1,5-naphthyridin-4-yl)oxy]phenyl]-5-(4-fluoro-2-methylphenyl)-1,6-dimethyl-4-oxopyridine-3-carboxamide], the IC50 in assay [1] was under 100 nM; in assay [2], over 300 nM; in assay [3], under 100 nM.
Turning to `COCc1nc(C)c(-c2ccc(F)cc2)c(O)c1C(=O)Nc1ccc(Oc2ccnc3cc(OC)c(OC)nc23)c(F)c1` [Compound 184, N-[4-[(6,7-Dimethoxy-1,5-naphthyridin-4-yl)oxy]-3-fluorophenyl]-5-(4-fluorophenyl)-4-hydroxy-2-(methoxymethyl)-6-methylpyridine-3-carboxamide], the IC50 in assay [1], in assay [2] and in assay [3] was under 100 nM throughout.
In the case of `COCc1nc(C)c(-c2ccc(F)cc2)c(O)c1C(=O)Nc1ccc(Oc2ccnc3cc(OC)cnc23)cc1` [Compound 185, 5-(4-Fluorophenyl)-4-hydroxy-2-(methoxymethyl)-N-[4-[(7-methoxy-1,5-naphthyridin-4-yl)oxy]phenyl]-6-methylpyridine-3-carboxamide], the IC50 in assay [1], in assay [2] and in assay [3] was under 100 nM each time.
Regarding `COCc1nc(C)c(-c2ccc(F)cc2)c(O)c1C(=O)Nc1ccc(Oc2ccnc3cc(OC)cnc23)c(F)c1` [Compound 186, N-[3-Fluoro-4-[(7-methoxy-1,5-naphthyridin-4-yl)oxy]phenyl]-5-(4-fluorophenyl)-4-hydroxy-2-(methoxymethyl)-6-methylpyridine-3-carboxamide], the IC50 in assay [1], in assay [2] and in assay [3] was under 100 nM throughout.
